Results reported in patent US7557212B2, “Tricyclic derivatives as LTD4 antagonists” (Laboratorios Almirall, S.A., priority 2002, dated 2009).
Where two headings read alike, the source gives them in different places.

What was measured:
[1] = test system: LTD4-induced airway microvascular leakage; experiment: LTD4-induced microvascular permeability in guinea-pigs (Evans blue extravasation in trachea); format: in vivo, guinea pig; settings: oral gavage 4 hours before, LTD4 1 μg/kg i.v., male Dunkin-Hartley guinea pigs
Procedure: LTD4-Induced Microvascular Permeability in Guinea-Pigs
Male Dunkin-Hartey guinea pigs (450-500 g) fasted for 18 hours were administered the test compounds by oral gavage 4 hours before being anesthetized with urethane (15%, i.p. 10 ml/kg). The left jugular vein was canulated under anaesthesia. Five minutes afterwards, Evans blue dye (40 mg/Kg) was injected intravenously. After five more minutes, LTD4 was administered (1 μg/kg, i.v.) to the animals in order to induce airway microvascular leakage. After yet another period of 5 minutes, animals were exsanguinated by cutting the right atria and the vascular bed was rinsed by perfusing 50 ml of saline solution through the left ventricle at a pressure of 150 cmH2O. Then the trachea was excised and incubated in formamide for 20 hours at 55° C. to extract the Evans blue dye from the tissue. Microvascular permeability was determined by light spectrophotometry at 620 nm of the extravasated dye.

CysLT1 = target: T1, CysLT1 (Cavia porcellus, UniProt Q2NNR5); experiment: CysLT1/LTD4 radioligand binding assay ([3H]LTD4, guinea-pig lung membrane preparation); settings: 300 pM [3H]LTD4, guinea-pig lung membranes, 30 minutes at room temperature
T1 construct: The assay mixture also contained 200 μg of lung membrane protein/plate well; from tissue; host or cells: guinea-pig lung (primarily parenchyma) membrane preparation
T1 sequence (Q2NNR5 1-340): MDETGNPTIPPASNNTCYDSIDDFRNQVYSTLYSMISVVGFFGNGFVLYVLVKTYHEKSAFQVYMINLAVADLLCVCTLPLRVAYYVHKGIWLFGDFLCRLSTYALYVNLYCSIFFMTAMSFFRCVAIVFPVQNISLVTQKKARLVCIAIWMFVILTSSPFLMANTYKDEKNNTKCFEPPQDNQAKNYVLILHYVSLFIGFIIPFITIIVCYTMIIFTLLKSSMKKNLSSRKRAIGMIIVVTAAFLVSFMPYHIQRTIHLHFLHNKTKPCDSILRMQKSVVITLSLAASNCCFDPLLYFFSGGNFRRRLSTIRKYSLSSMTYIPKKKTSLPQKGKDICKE
Procedure: CysLT1/LTD4 Binding Protocol (Guinea-Pig Lung Membrane Preparation)
Guinea pigs were sacrificed and lung tissues removed. Connective tissue, trachea, large blood vessels and major airways were removed and the remaining tissue, primarily parenchyma, was homogenised in 20 volumes of 10 mM TRIS pH 7.4 containing 0.25M sucrose, 0.25 mM phenylmethylsulfonyl fluoride, 155 μg/ml benzenecarboximide, 5 μg/ml soybean trypsin inhibitor and 100 μg/ml bacitracin (Work Buffer), in a ULTRA-TURRAX T25 at 13500 rpm. The homogenate was centrifuged at 1000×g for 10 minutes at 4° C. The resulting supernatant was filtered through a sterile cloth and further centrifuged for 15 minutes at 40000×g at 4° C. The pellet obtained was resuspended in 10 volumes of Work Buffer, homogenised using a Potter (1100 rpm) and subjected to a final centrifugation step for 30 minutes at 40000×g at 4° C. This membrane pellet was finally resuspended in 10 volumes of 10 mM TRIS and 10 mM PIPES pH 7.4, and homogenised using a Potter (1100 rpm). Protein concentration was determined by the BRADFORD method using the Bio-Rad Protein Assay kit with BSA as standard. Protein aliquots were kept frozen at −80° C.
Radioligand Binding Assay
[^3H]LTD4 (136.9 Ci/mmol) was obtained from NEN.
The assays were performed in a final volume of 250 μl of 10 mM PIPES pH 7.5 containing 10 mM CaCl2, 10 mM MgCl2, 50 mM NaCl, 2 mM L-Cysteine, 2 mM Glycine and 300 pM [^3H]LTD4. The assay mixture also contained 200 μg of lung membrane protein/plate well. Non-specific binding was determined in the presence of zafirlukast 10 μM.
The assays were performed directly on Millipore Multiscreen GF/B plates, presoaked with 200 μl/well of assay buffer at room temperature. Incubations were conducted for 30 minutes at room temperature with continuous shaking. Separation of bound and free [^3H]LTD4 was done by filtration through the plates that were then washed three times with 175 μl/wash of 10 mM TRIS containing 100 mM NaCl at 4° C. The plates were dried and counted in a TRILUX Microbeta Liquid Scintillation Counter of Wallac.

[2] = Cavia porcellus, read-out: ED50

## O=C(O)CCSC1c2cc(OCc3ccc4cc(F)c(F)cc4n3)ccc2OCc2ncccc21 (single isomer, unassigned; (+)) [Example 34, (+)-3-[7-(6,7-Difluoro-quinolin-2-ylmethoxy)-5,11-dihydro-10-oxa-1-aza-dibenzo[a,d]cyclohepten-5-ylsulfanyl]-propionic Acid]
[1]; [2]
  ED50: 0.018 mg/kg
CysLT1
  IC50: 1200 pM

## O=C(O)CCSC1c2cc(OCc3ccc4cc(F)c(Cl)cc4n3)ccc2CCc2ncccc21 (single isomer, unassigned; (+)) [Example 43, (+) 3-[7-(7-Chloro-6-fluoro-quinolin-2-ylmethoxy)-10,11-dihydro-5H-benzo[4,5]cyclohepta[1,2-b]pyridin-5-ylsulfanyl]-propionic Acid]
CysLT1
  IC50: 3400 pM

## O=C(O)CCSC1c2cc(OCc3ccc4cc(F)c(F)cc4n3)ccc2OCc2ncccc21 (single isomer, unassigned; (-)) [Example 35, (−)-3-[7-(6,7-Difluoro-quinolin-2-ylmethoxy)-5,11-dihydro-10-oxa-1-aza-dibenzo[a,d]cyclohepten-5-ylsulfanyl]-propionic Acid]
[1]
  ED50: 0.009 mg/kg
CysLT1
  IC50: 350 pM

## O=C(O)CCSC1c2ccccc2COc2ccc(OCc3ccc4cc(F)c(Cl)cc4n3)cc21 (stereo not drawn) [Compound A, reference compound]
[1]
  ED50: 0.010 mg/kg
CysLT1
  IC50: 510 pM

## CC(C)(O)c1ccccc1CC[C@@H](SCC1(CC(=O)O)CC1)c1cccc(/C=C/c2ccc3ccc(Cl)cc3n2)c1 [Compound B, reference compound]
[1]; [2]
  ED50: 0.008 mg/kg

## O=C(O)CCSC1c2cc(OCc3ccc4cc(F)c(F)cc4n3)ccc2OCc2ncccc21 (stereo not drawn) [Example 1, 3-{(7-[(6,7-difluoroquinolin-2-yl)methoxy]-5,11-dihydro[1]benzoxepino[3,4-b]pyridin-5-yl)thio}propanoic Acid]
[1]; [2]
  ED50: 0.009 mg/kg
CysLT1
  IC50: 380 pM

## O=C(O)CSC1c2cc(OCc3ccc4cc(F)c(Cl)cc4n3)ccc2OCc2ncccc21 (stereo not drawn) [Example 3, {(7-[(7-chloro,6-fluoro-quinolin-2-yl)methoxy]-5,11-dihydro[1]benzoxepino[3,4-b]pyrindin-5-yl)thio}acetic Acid]
CysLT1
  IC50: 270 pM

## O=C(O)CCSC1c2cc(OCc3ccc4cc(F)c(Cl)cc4n3)ccc2OCc2ncccc21 (stereo not drawn) [Example 4, 3-{(7-[(7-chloro,6-fluoro-quinolin-2-yl)methoxy]-5,11-dihydro[1]benzoxepino[3,4-b]pyrindin-5-yl)thio}propanoic Acid]
[1]; [2]
  ED50: 0.03 mg/kg
CysLT1
  IC50: 280 pM

## O=C(O)CC1(CSC2c3cc(OCc4ccc5cc(F)c(F)cc5n4)ccc3OCc3ncccc32)CC1 (stereo not drawn) [Example 7, 1-{[(7-[(6,7-difluoroquinolin-2-yl)methoxy]-5,11-dihydro[1]benzoxepino[3,4-b]pyrindin-5-yl)thio]methyl}cyclopropyl Acetic Acid]
[1]; [2]
  ED50: 0.013 mg/kg
CysLT1
  IC50: 140 pM

## CC(C)(CSC1c2cc(OCc3ccc4cc(F)c(F)cc4n3)ccc2OCc2ncccc21)C(=O)O (stereo not drawn) [Example 8, 3-{(7-[(6,7-difluoroquinolin-2-yl)methoxy]-5,11-dihydro[1]benzoxepino[3,4-b]pyrindin-5-yl)thio}-2,2-dimethylpropanoic Acid]
CysLT1
  IC50: 500 pM

## CC(C)(CC(=O)O)SC1c2cc(OCc3ccc4cc(F)c(F)cc4n3)ccc2OCc2ncccc21 (stereo not drawn) [Example 9, 3-{(7-[(6,7-difluoroquinolin-2-yl)methoxy]-5,11-dihydro[1]benzoxepino[3,4-b]pyrindin-5-yl)thio}-3methylbutanoic Acid]
[1]; [2]
  ED50: 0.018 mg/kg
CysLT1
  IC50: 590 pM

## O=C(O)CC1(CSC2c3cc(/C=C/c4ccc5cc(F)c(F)cc5n4)ccc3OCc3ncccc32)CC1 (stereo not drawn) [Example 11, 1-{[(7-[(E)-2-(6,7-difluoroquinolin-2-yl)vinyl]-5,11-dihydro[1]benzoxepino[3,4-b]pyrindin-5-yl)thio]methyl}cyclopropyl Acetic]
[1]; [2]
  ED50: 0.0013 mg/kg
CysLT1
  IC50: 270 pM

## O=C(O)CSC1c2cc(/C=C/c3ccc4cc(F)c(F)cc4n3)ccc2OCc2ncccc21 (stereo not drawn) [Example 12, {(7-[(E)-2-(6,7-difluoroquinolin-2-yl)vinyl]-5,11-dihydro[1]benzoxepino[3,4-b]pyrindin-5-yl)thio}acetic Acid]
CysLT1
  IC50: 350 pM

## O=C(O)CC1(CSC2c3cc(OCc4ccc5cc(F)c(F)cc5n4)ccc3OCc3cccnc32)CC1 (stereo not drawn) [Example 18, 1-{[(9-[(6,7-difluoroquinolin-2-yl)methoxy]-5,11-dihydro[1]benzoxepino[4,3-b]pyrindin-11-yl)thio]methyl}cyclopropyl Acetic Acid]
CysLT1
  IC50: 330 pM

## O=C(O)CCSC1c2cc(OCc3ccc4cc(F)c(Cl)cc4n3)ccc2CCc2ncccc21 (stereo not drawn) [Example 23, 3-[7-(7-Chloro-6-fluoro-quinolin-2-ylmethoxy)-10,11-dihydro-5H-benzo[4,5]cyclohepta[1,2-b]pyridin-5-ylsulfanyl]-propionic Acid]
[1]; [2]
  ED50: 0.002 mg/kg
CysLT1
  IC50: 340 pM

## O=C(O)CCSC1c2cc(OCc3ccc4cc(F)c(F)cc4n3)ccc2CCc2ncccc21 (stereo not drawn) [Example 24, 3-[7-(6,7-difluoro-quinolin-2-ylmethoxy)-10,11-dihydro-5H-benzo[4,5]cyclohepta[1,2-b]pyridin-5-ylsulfanyl]-propionic Acid]
[1]; [2]
  ED50: 0.01 mg/kg
CysLT1
  IC50: 600 pM

## O=C(O)CCSC1c2ccncc2CCc2ccc(OCc3ccc4cc(F)c(F)cc4n3)cc21 (stereo not drawn) [Example 25, 3-[7-(6,7-Difluoro-quinolin-2-ylmethoxy)-10,11-dihydro-5H-benzo[4,5]cyclohepta[1,2-c]pyridin-5-ylsulfanyl]-propionic Acid]
CysLT1
  IC50: 670 pM

## O=C(O)CCSC1c2cc(CCc3ccc4cc(F)c(F)cc4n3)ccc2OCc2cccnc21 (stereo not drawn) [Example 28, 3-{7-[2-(6,7-Difluoro-quinolin-2-yl)-ethyl]-5,11-dihydro-10-oxa-4-aza-dibenzo[a,d]cyclohepten-5-ylsulfanyl}-propionic Acid]
CysLT1
  IC50: 2000 pM

## O=C(O)CCSC1c2cc(OCc3ccc4cc(F)c(F)cc4n3)ccc2C=Cc2ncccc21 (stereo not drawn) [Example 33, 3-[7-(6,7-Difluoro-quinolin-2-ylmethoxy)-5H-benzo[4,5]cyclohepta[1,2-b]pyridin-5-ylsulfanyl]-propionic Acid]
CysLT1
  IC50: 500 pM

## O=C(O)CC1(CSC2c3cc(/C=C/c4ccc5cc(F)c(F)cc5n4)ccc3C=Cc3ncccc32)CC1 (stereo not drawn) [Example 40, (1-{7-[2-(6,7-Difluoro-quinolin-2-yl)-vinyl]-5H-benzo[4,5]cyclohepta[1,2-b]pyridin-5-ylsulfanylmethyl}-cyclopropyl) Acetic Acid]
CysLT1
  IC50: 500 pM
